Measured values: paper PMC10975611, “Heterocycles 52: The Drug-Likeness Analysis of Anti-Inflammatory Thiazolo[3,2-b][1,2,4]triazole and Imidazo[2,1-b][1,3,4]thiadiazole Derivatives” (Pharmaceuticals, 2024)

Experiments:
[1] = Lipophilicity by reversed-phase thin-layer chromatography (RP-TLC), isopropanol-water mobile phase; format: physicochemical; conditions: for mRM (arithmetic mean of the experimental retention factors RM): RP-18F254s plates, isopropanol 70–90% in water; for RM0 (relative lipophilicity, RM extrapolated to pure water): Soczewinski Wachtmeister equation, isopropanol 70–90%; for PC1(RM): score of first principal component of RM values at isopropanol 70–90%; for b (slope): slope of RM versus isopropanol concentration; for φ0 (chromatographic hydrophobic index): φ0 = RM0/b; for lipophilicity (in words): chromatographic lipophilicity profile / lipophilicity descriptors
Procedure: Lipophilicity was assessed by RP-TLC, using RP-[…] standard silica gel plates (20 × 10 cm) as the stationary phase. An isopropanol:water binary mixture was used as the mobile phase, with different isopropanol concentrations 70%, 75%, 80%, 85%, 90% for thiazolo[3,2-b][1,2,4]triazole (1a–16a) and imidazo[2,1-b][1,3,4]thiadiazole (1b–16b) compounds.
The standard solutions (1 mg/mL) used to investigate the lipophilicity of the synthesized compounds were prepared in dichloromethane (1a–16a compounds) and dimethylsulfoxide (1b–16b compounds). From the obtained solutions, 2 µL was applied manually on the chromatographic plates, at 15 mm from the baseline and 5 mm from the edges of the plate at a spot distance of 12 mm. This procedure was repeated three times. The chromatographic plate upward elution was performed in a chromatographic chamber previously saturated for 30 min with mobile phase, at normal atmospheric pressure and room temperature. The migration distance of the eluent was 80 mm. The chromatographic plates were visually inspected under UV light at λ = 254 nm to identify the compounds. In order to minimize possible experimental errors, three measurements were performed for each mobile phase. The retention factors (Rf) were calculated as the average of three determinations in each case.
Based on the Rf values, a variety of parameters can be determined to estimate the lipophilicity of the compounds. The isocratic retention factor (RM) was determined using the Bate–Smith and Westall equation [34]:RM = log(1/Rf − 1) where Rf = x/y and x = the migration distance of the compound, and y = the migration distance of the solvent front.
There is usually a linear correlation between the RM values and the concentration of the organic component in the mobile phase. For a better estimation of lipophilicity, RM0 was determined as the extrapolated retention factor, considering pure water as the mobile phase (Soczewinski Wachtmeister equation):RM = RM0 + bC where b is the slope of the curve, which indicates the rate at which the solubility of the compound increases in the mobile phase, C is the concentration of the isopropanol in the mobile phase, and RM0 is the RM of the compound when the concentration of isopropanol is zero (extrapolated value).
To estimate the lipophilicity of the compounds, φ0, representing the chromatographic hydrophobicity index, was also determined. It corresponds to the percentage (by volume) of the organic component in the mobile phase and can be determined according to the following formula:φ0 = RM0/b
In order to assess the lipophilicity of compounds, other more relevant lipophilicity parameters have been used, such as the arithmetic mean of the experimental retention factors (mRM), and the score associated with the first principal component (PC1(RM)) obtained by applying principal component analysis (PCA) to the retention parameters RM [35, 36]. The determination of these parameters eliminates the errors that appear during the extrapolation procedure (when determining RM0) so that the results are more accurate.

[2] = parameters: method as in doi:10.31925/farmacia.2018.5.20, PMID 30248903; conditions: acute inflammation, compared to diclofenac; cited from earlier work
[3] = parameters: method as in doi:10.31925/farmacia.2018.5.20, PMID 30248903; conditions: in vivo; cited from earlier work

Compound	mRM (arithmetic mean of the experimental retention factors RM) [1]	RM0 (relative lipophilicity, RM extrapolated to pure water) [1]	PC1(RM) [1]	b (slope) [1]	φ0 (chromatographic hydrophobic index) [1]	lipophilicity (in words) [1]	in vivo anti-inflammatory activity [2]	pain threshold [3]
Clc1ccc(-c2nc3scc(-c4ccccc4)n3n2)cc1 [Compound 5a]	0.178	2.131	−0.743	−0.024	87.32			
NS(=O)(=O)c1ccc(-c2nc3scc(-c4ccccc4)n3n2)cc1 [Compound 13a]	−0.555	1.472	1.875	−0.026	57.72	the least lipophilic compounds	significantly reduced acute inflammation in vivo	increased pain threshold
COc1ccc(-c2nn3cc(-c4ccc(C(F)(F)F)cc4)nc3s2)cc1 [Compound 11b]	0.110	1.973	−0.498	−0.023	84.69			
NS(=O)(=O)c1ccc(-c2nn3cc(-c4ccc(C(F)(F)F)cc4)nc3s2)cc1 [Compound 15b]	−0.504	1.725	1.693	−0.028	62.28			
NS(=O)(=O)c1ccc(-c2nn3cc(-c4ccccc4)nc3s2)cc1 [Compound 13b]	−0.464	0.988	1.554	−0.018	53.99	the least lipophilic compounds	significantly reduced acute inflammation in vivo	increased pain threshold
Brc1ccc(-c2cn3nc(-c4ccccc4)sc3n2)cc1 [Compound 2b]	0.174	2.507	−0.730	−0.029	85.86	high lipophilicity		
c1ccc(-c2cn3nc(-c4ccccc4)sc3n2)cc1 [Compound 1b]	0.072	1.955	−0.365	−0.024	83.18		significantly reduced acute inflammation in vivo	increased pain threshold
COc1ccc(-c2nc3scc(-c4ccc(Br)cc4)n3n2)cc1 [Compound 10a]	0.168	2.132	−0.711	−0.025	87.00	high lipophilicity		
FC(F)(F)c1ccc(-c2csc3nc(-c4ccccc4)nn23)cc1 [Compound 3a]	0.065	2.229	−0.341	−0.027	82.54			
Brc1ccc(-c2csc3nc(-c4ccccc4)nn23)cc1 [Compound 2a]	0.200	2.130	−0.821	−0.024	88.37	high lipophilicity		
FC(F)(F)c1ccc(-c2csc3nc(-c4ccc(Cl)cc4)nn23)cc1 [Compound 7a]	0.186	2.648	−0.775	−0.031	85.99			
COc1ccc(-c2csc3nc(-c4ccc(S(N)(=O)=O)cc4)nn23)cc1 [Compound 16a]	−0.529	0.864	1.788	−0.017	49.68			
COc1ccc(-c2cn3nc(-c4ccc(S(N)(=O)=O)cc4)sc3n2)cc1 [Compound 16b]	−0.511	0.938	1.723	−0.018	52.12			
COc1ccc(-c2cn3nc(-c4ccc(Cl)cc4)sc3n2)cc1 [Compound 8b]	0.148	2.183	−0.634	−0.026	84.92			
NS(=O)(=O)c1ccc(-c2nn3cc(-c4ccc(Br)cc4)nc3s2)cc1 [Compound 14b]	−0.416	1.399	1.382	−0.023	62.17			
COc1ccc(-c2csc3nc(-c4ccc(Cl)cc4)nn23)cc1 [Compound 8a]	0.166	2.126	−0.701	−0.025	86.79			
COc1ccc(-c2nn3cc(-c4ccc(Br)cc4)nc3s2)cc1 [Compound 10b]	0.222	1.990	−0.899	−0.022	90.04	high lipophilicity		
NS(=O)(=O)c1ccc(-c2nc3scc(-c4ccc(C(F)(F)F)cc4)n3n2)cc1 [Compound 15a]	−0.504	1.534	1.694	−0.026	60.16			
NS(=O)(=O)c1ccc(-c2nc3scc(-c4ccc(Br)cc4)n3n2)cc1 [Compound 14a]	−0.435	1.309	1.448	−0.022	60.05			
COc1ccc(-c2nc3scc(-c4ccc(C(F)(F)F)cc4)n3n2)cc1 [Compound 11a]	0.032	2.217	−0.226	−0.027	81.22			
Clc1ccc(-c2nn3cc(-c4ccc(Br)cc4)nc3s2)cc1 [Compound 6b]	0.239	2.454	−0.960	−0.028	87.94	the most lipophilic compounds		
FC(F)(F)c1ccc(-c2cn3nc(-c4ccccc4)sc3n2)cc1 [Compound 3b]	0.062	2.410	−0.331	−0.029	81.96			
Clc1ccc(-c2nc3scc(-c4ccc(Br)cc4)n3n2)cc1 [Compound 6a]	0.324	2.582	−1.267	−0.028	91.57	the most lipophilic compounds		
FC(F)(F)c1ccc(-c2cn3nc(-c4ccc(Cl)cc4)sc3n2)cc1 [Compound 7b]	0.086	2.468	−0.414	−0.030	82.28			
